Patent US8532742B2, “System and method for simultaneous 3DPR device tracking and imaging under MR-guidance for therapeutic endovascular interventions” (Wisconsin Alumni Research Foundation, priority 2006, dated 2013)

Assays:
[1] = Diffusion of a fluorescent probe in swollen gelatin gel by FRAP; format: physicochemical; conditions: coating thickness 60 μm, diffusion coefficient 9×10-12 m2s-1
Source text: To assess the stability of DTPA[Gd(III)] in the gelatin coating, the diffusion of a fluorescence probe in gelatin was studied by the technique of fluorescence recovery after photobleaching (FRAP). The instrument and data analysis scheme are described in Kim, S. H. and Yu, H., J. Phys. Chem. 1992, 96, 4034, which is hereby fully incorporated by reference. Fluorescein was used as the fluorescence probe due, in part, to its molecular size being roughly the same as that of DTPA[Gd(III)]. The focus of the study was to examine the possible retardation effects of gelatin concentration and cross-link density on the diffusion, which was determined at room temperature, i.e., below the gel point of gelatin. The diffusion of fluorescein probe slows down with the increase of gelatin concentration. The diffusion coefficient decreases from 1.5×10-10 to 9×10-12 […]-1 when the concentration of gelatin increases from 9% to 40%. […] Accordingly, the probe diffusion is more likely controlled by the concentration of gelatin rather than the cross-link density. On the other hand, the cross-link density may determine the swelling ratio of gelatin, i.e., the concentration of gelatin in aqueous solution. […]

[2] = MR visibility test of gelatin/DTPA[Gd(III)] coating on PE rod in saline and yogurt (Example 14); conditions: soaked in water for 12 hours before MRI test
Protocol: Samples having the above formulations were transferred to a glass tube and kept in a water bath at 35° C. A bare PE rod (5 cm in length) was then dipped into the solution, and then removed. The rod was then cooled to room temperature to allow chill-setting of the gelatin solution and to form the coating on the rod surface. The same procedure was repeated to overcoat additional layers of gel. The final dry thickness of gel-coating was about 60 μm.
The gelatin coatings were dried in air while being chemically cross-linked by BVSM. The dried and cross-linked samples were then soaked in distilled water for 12 hours. Soaking each sample in distilled water may remove the DTPA[Gd(III)] that was not physically or chemically constrained by the cross-linked network of gelatin overcoat. Because the DTPA[Gd(III)] complexes were not chemically linked to the gelatin chains, most of them would be expected to diffuse out of the coating when soaked in water, whereas some of DTPA[Gd(III)] may be confined by the crystal domains in gelatin or by hydrogen bonding between gelatin chains and DTPA. In any event, after the soaking, the gelatin coating was dried again in air before MRI test.
The MR visibility of the samples prepared as outlined above, was tested in two media: saline and yogurt. […]

Row | SMILES | time to diffuse out of the gelatin coating [1] | retention of complex in gelatin gel after soaking [2]
1 | O=C(O)CN(CCN(CC(=O)O)CC(=O)O)CCN(CC(=O)O)CC(=O)O [DTPA, diethylenetriaminepentaacetic acid] | about 67 seconds | –
2 | O=C([O-])CN(CCN(CC(=O)[O-])CC(=O)O)CCN(CC(=O)[O-])CC(=O)O.[Gd+3] [DTPA[Gd(III)], gadolinium-diethylene triamine pentaacetic acid] | – | some fraction of DTPA[Gd(III)] remained in the gel
